Reference: patent US8349793B2, “Method for treatment of inflammatory disease and disorder” (Heal0r, Ltd., priority 2010, dated 2013)
Where “and” joins values, the source holds several entries; their conditions need not be identical. Equal entries are not always repeated. Where no end group is shown, it is not given here. The star is where a group is joined. Myristoyl = CCCCCCCCCCCCCC(=O)*

What was measured:
keratinocytes = experiment: Cytokine secretion in keratinocytes stimulated by LPS, TNFα or IL-17 (ELISA); assay type: cell-based, BALB/C mice
Procedure: To determine their effects, keratinocytes were derived from newborn BALB/C mice skin. The cells were incubated for 5 days in 24 wells plate. Cells were then incubated with PBS−/− as control or stimulated by LPS, TNFα, or IL-17. PKCα inhibitors were added as indicated. Medium containing secreted cytokines was collected after 48 hr and analyzed using ELISA. FIG. 40 is a tabular summary of cytokine secretion.
PKCδactivators were also shown to have an anti-inflammatory effect on keratinocytes and splenocytes. Keratinocytes were derived from newborn BALB/C mice skin. The cells were incubated for 5 days in 24 wells plate. Cells were then incubated with PBS−/− as control or stimulated by LPS or TNFα. The PKCδ inhibitor DAP-1 (SEQ ID NO: 16) was added. Medium containing secreted cytokines was collected after 48 hr and analyzed using ELISA. FIG. 35 is a tabular summary showing cytokine secretion in splenocytes stimulated with LPS. […] Cytokine secretion in keratinocytes stimulated by TNFα: following stimulation with 35 ng/ml TNFα. And treatment with 10 μg/ml of DAP-1, the cytokine levels of IL-1α, G-CSF, MIP-2 and KC were reduced by 95%, 70%, 20% and 30# respectively.
PKCε inhibitors were also shown to have an anti-inflammatory effect on keratinocytes. Keratinocytes were derived from newborn BALB/C mice skin. The cells were incubated for 5 days in 24 wells plate. Cells were then incubated with PBS−/− as control or stimulated by LPS or TNFα. The PKCεinhibitors EPIP-1 (SEQ ID NO: 20), EPIP-2 (SEQ ID NO: 21), or EPIP-4 (SEQ ID NO: 23) were added. Medium containing secreted cytokines was collected after 48 hr and analyzed using ELISA. FIGS. 36-39 show the results for secretion of specific cytokines while Table 8 summarizes cytokine secretion for the various PKCε inhibitors: […]

healthy volunteers = experiment: Histamine prick test model of pruritus; assay type: in vivo, human (healthy volunteers); conditions: for Pruritus score after minutes of histamine, 5 minutes / Pruritus score after minutes of histamine, 15 minutes: topical on forearm
Procedure: Forearms of individual subjects were injected with histamine solution and placebo. The formulation of Example 4 was topically applied with MPDY-1 at various concentrations and pruritus was assessed over a time course as shown, for example in FIG. 34.
This test was performed by placing a drop of a solution containing a possible allergen on the skin, and a series of scratches or needle pricks allow the solution to enter the skin. The extract enters into the outer layer of the skin (epidermis) using a fine needle (such as a. 26G disposable needle). This testing is not painful, and generally there is no bleeding involved since the needle only scratches the surface of the skin. If the skin develops a red, raised itchy area (called a wheal), it is as a result of allergic reaction to that allergen. This is called a positive reaction. A drop of extract is introduced through a fine needle (such as a No. 26 disposable needle). The test causes no discomfort and minimal trauma so that controls and negative test show only the site of the prick; if anything.
26G needles were utilized to introduce histamine stock (Histatrol Positive Control Histamine, 1 mg/ml, code #HIST14999V, Trupharm). The test was conducted on healthy volunteers in a double-blind, randomized test. The formulations were applied on the forearms. Three treatment areas were chosen and marked (the surface of the forearm from the elbow to the wrist was divided transversely into proximal, middle and distal thirds); the areas were pricked prior the below treatments.
An area was treated with the active formulation in a double-blind manner, for 10 minutes—marked as A.
An area was treated with the Placebo in a double-blind manner, for 10 minutes—marked as C.
A color photograph was taken at time zero (T0), after 10, 20, 30 minutes.
Pruritus questionnaire was answered by the subjects 5 and 15 minutes after treatment.
In one study, three subjects were treated, in the left or right arm, with MDPY-1 in gel or cream formulations, or with control formulations, as shown in Table 9.
Subjects were provided with pruritus sensation forms and asked to indicate the level of pruritus sensed from 0 (no response) to 4 (uncontrollable pruritus) at different time intervals.

C57BL/6J mouse = experiment: Wound model of skin inflammation, immunohistochemical staining (ICAM-1, Iba-1, MAC-2, CD3, neutrophils); assay type: in vivo; conditions: treated daily
Text: A methodology was developed to detect and quantitatively assess inflammation in skin lesions in a wound setting which allows one to follow cutaneous inflammatory response in the different skin compartments and identify agents that affect this response (as a preliminary screening). Inflammatory response was considered severe when two of the following three conditions were evident: (1) abscess formation; (2) excessive leukocytosis (>100 cells in a fixed field×200); (3) high WB C/RBC ratio in blood vessels, where >20% of WBC content within the blood vessels is shown in a fixed field×200. Mechanistic characterization of the immunological response is studied utilizing markers to identify infiltration and activation of specific immunological cells. Examples for such markers are: ICAM-1 (as a marker activated basal keratinocytes and endothelial cells), MAC-2 (as a marker for activated macrophages) and CD3 (T cell marker).
(§1) A two-cm longitudinal incision was done on the upper back of a C57BL/6J mouse. Following wounding, a sterile pad was sutured to the mouse's skin. Animals were treated daily with HO/02/10 (n=12). Five days post-wounding, when inflammatory phase reaches its peak, the mice were sacrificed, skin tissues were embedded in paraffin and immunohistochemical staining was performed utilizing anti-ICAM-1 antibodies.
as §1, with “As above, a two-cm” for “A two-cm”, “with MPDY-1 (n=6).” for “with HO/02/10 (n=12).”
The effect of MPDY-1 on macrophage infiltration was also shown by Iba-1 staining. Iba-1 is a general marker for macrophages. […] As above, a two-cm longitudinal incision was done on the upper back of a C57BL/6J mouse. Following wounding, a sterile pad was sutured to the mouse's skin. Animals were treated daily with MPDY-1 (n=6). […]

IKK = experiment: TNFα induced IKK activation in keratinocytes (Western Blot, phospho-IKKa/b); assay type: cell-based, Murine; conditions: TNFα 35 ng/ml for 15 minutes
Procedure: Murine primary keratinocytes were grown for 4 days to full confluence in Low Ca^+2 MEM. Cells were pretreated with designated concentration of MPDY-1 as described in the figure for 1 hour, prior to TNFα induction. Following MPDY-1 pretreatment, cells were incubated with TNFα 35 ng/ml for 15 minutes. Reaction was stopped by adding ice-cold dPBS−/− and keratinocytes were homogenized in RIPA buffer. Samples were subjected to SDS PAGE Western Blot analysis, utilizing phospho-IKKa/b (Ser176/180 antibody).

[1] = 10 ppm in gel, score 0 (no response) to 4 (uncontrollable pruritus)

Myristoyl-Phe-Ala-Arg-Lys-Gly-Ala-Leu-Arg-Gln (Myristoyl-FARKGALRQ) [MPDY-1]
cytokine secretion from LPS and TNFα activated keratinocytes (keratinocytes; FIGS. 19 to 23): decrease
cytokine secretion from IL-17A activated keratinocytes (keratinocytes; FIGS. 24 to 27): decrease
cytokine secretion in keratinocytes (keratinocytes; stimulated by LPS, TNFα, or IL-17, 48 hr): effective in decreasing cytokine secretion
Pruritus score after minutes of histamine, 5 minutes (healthy volunteers; 1 μg/ml in DPBS, score 0 to 4): 3
Pruritus score after minutes of histamine, 15 minutes (healthy volunteers; 1 μg/ml in DPBS, score 0 to 4): 1
Pruritus score after minutes of histamine, 5 minutes (healthy volunteers; 10 μg/ml in DPBS, score 0 to 4): 2 and 1
Pruritus score after minutes of histamine, 15 minutes (healthy volunteers; 10 μg/ml in DPBS, score 0 to 4): 0
Pruritus score after minutes of histamine, 5 minutes (healthy volunteers; 10 ppm in cream, score 0 to 4): 1
Pruritus score after minutes of histamine, 15 minutes (healthy volunteers; 10 ppm in cream, score 0 to 4): 0
Pruritus score after minutes of histamine, 5 minutes (healthy volunteers; [1]): 2
Pruritus score after minutes of histamine, 15 minutes (healthy volunteers; [1]): 0
redness, inflammation and pruritus as compared with control (healthy volunteers; histamine prick test, over the time course): significantly attenuated
Activation of macrophages (MAC-2 staining) (C57BL/6J mouse; 5 days, 1, 10 and 100 micrograms per mL): significantly inhibited
ICAM expression on basal keratinocytes and endothelial cells in blood vessels of the skin (ICAM-1 staining) (C57BL/6J mouse; five days post-wounding): down regulation
macrophage infiltration (Iba-1 staining) (C57BL/6J mouse; five days post-wounding): dose dependent effect
MPDY-1 concentration exhibiting the strongest inhibition of IKK activation (IKK; lowest concentration tested): 0.1 mg/mL
TNFα induced IKK activation in keratinocytes (IKK; pretreated 1 hour, dose dependant): significantly reduced
